Source: patent US11912682B2, “Isoindolinone compounds” (Monte Rosa Therapeutics, Inc., priority 2021, dated 2024)
Like-named read-outs stand apart in the source and are kept apart here.

Key:
[1] = target: Full length wild-type cereblon CRBN (Homo sapiens (Human), UniProt Q96SW2); assay: fluorescence polarization (FP) assay, cereblon binding
Method in brief: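 Full-length wild-type CRBN (80.0 nM as dispensed) preincubated 30 min at room temperature with compound in HEPES pH 8.0, NaCl, TCEP, 0.05% Tween 20.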

IKZF1 (Ikaros) = IKZF1 (Ikaros) (Homo sapiens (Human), UniProt Q13422); assay: selectivity by Western blot in MM1S cells, IKZF1; assay type: cell-based; parameters: key to IKZF1 degradation: A represents a no degradation observed at 30 μM; B represents trace degradation at 30 μM (below 20%); C represents weak degradation at 30 μM (below 50%); D represents degradation at 30 μM (>90%); E represents degradation at 3 μM (>90%); F represents degradation at 0.3 μM (>90%); conditions: for IKZF1 degradation: MM1S cells, 6 hours, 0.3, 3 and 30 μM
Sequence of IKZF1 (Ikaros) (Q13422 whole entry, looked up): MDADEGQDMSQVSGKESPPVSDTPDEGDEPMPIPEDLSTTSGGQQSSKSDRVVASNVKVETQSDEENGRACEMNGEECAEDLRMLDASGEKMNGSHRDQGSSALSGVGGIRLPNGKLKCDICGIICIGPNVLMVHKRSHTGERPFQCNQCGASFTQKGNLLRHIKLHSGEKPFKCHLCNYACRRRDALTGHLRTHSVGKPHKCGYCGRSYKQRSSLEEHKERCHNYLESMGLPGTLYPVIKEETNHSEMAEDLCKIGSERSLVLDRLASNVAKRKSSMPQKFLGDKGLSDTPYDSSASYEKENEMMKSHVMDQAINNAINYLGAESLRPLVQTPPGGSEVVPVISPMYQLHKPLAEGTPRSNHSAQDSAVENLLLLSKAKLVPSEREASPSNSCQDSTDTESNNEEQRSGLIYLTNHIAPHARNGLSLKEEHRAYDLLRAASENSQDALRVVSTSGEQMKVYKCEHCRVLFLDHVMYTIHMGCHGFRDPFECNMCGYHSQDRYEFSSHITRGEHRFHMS
Procedure: (§1) MM1S cells were purchased from ATCC (cat. Number CRL-2974), sub-cultured in 90% RPMI 1640 with 10% FBS, supplemented with 1× P/S and incubated at 37° C., 5% CO2. Compounds were stored as 10 mM DMSO stock. For the assay, MM1S cells (3 million cells/well) were plated in 6-well plates and incubated over night. Cells were treated with respective compounds using a serial dilution: 0.3 μM, 3 μM and 30 μM as well as a vehicle only (DMSO) control for 6 hours. Media with suspension cells was subsequently transferred to 15 mL conical tubes, wells rinsed twice with ice-cold PBS and merged with cell suspension in respective 15 mL conical tube. Cells were spinned down, supernatant aspirated, pellets resuspended in ice-cold PBS and transferred to microtubes. Cells were spinned down, supernatant aspirated and pellets resuspended in 120 μL RIPA lysis buffer supplemented with protease and phosphatase inhibitors. Cell lysates were incubated on ice for 20 minutes followed by centrifugation at >20,000 xg for 5 min. Supernatants were transferred to fresh microtubes and stored at −80° C. Total protein concentration was determined using a BCA assay with a BSA standard curve and concentration of all samples was adjusted to 1 mg/mL. 25 μL 4× LDS sample buffer supplemented with 100 mM DTT was added to 75 μL sample. Samples were centrifuged (8,000 xg, 1 min) and incubated at 95° C. for 5 min followed by another centrifugation step (8,000 xg, 1 min). 20 μL of each sample was loaded on a 4-12% gel alongside a protein molecular weight marker. Gels were run in the presence of MOPS buffer at 80 Volts for 30 min, followed by 120 Volts for 1.5 h and proteins subsequently transferred onto nitrocellulose membranes at 20 Volts for 7 min using an iBlot2 Gel Transfer Device. Membranes were then cut horizontally into two pieces, covering 80-50 kDa and 50-25 kDa. Blocking the membranes was performed by gently shaking in 5% (w/v) skim milk in TSB-T for 1 hr at room temperature. All primary antibodies were used at a 1/1000 in 5% (w/v) BSA dissolved in TBST and incubated with membranes over night at 4° C. Anti-IKZF1 (Ikaros; D6N9Y; 14859S), anti-IKZF3 (Aiolos; D1C1E; 15103S) antibodies were purchased from Cell Signalling Technology, anti-ZFP91 antibody from Bethyl laboratories, anti-GSPT1 from Sigma Aldrich (HPA052488) and anti CK1alpha from AbCam (ab206652). After three washes with 1× TBST for 5 min, HRP-coupled secondary antibodies diluted in 5% (w/v) BSA/TBST (Goat Anti-Rb IgG, dil. 1/10,000; Goat Anti-Mouse IgG, dil. 1/5000) were added for 1 hr at room temperature. After three washes with 1× TBST (5 minutes each), membranes were incubated with ECL reagent for 1 min at room temperature. Chemiluminescence signals were then detected using a LAS-4000 system with default settings and signals quantified using Image Studio Lite software (version 5.2). Membrane parts previously incubated with antibody against CK1alpha were stripped off antibodies by incubating with stripping buffer for 30 minutes followed by three washed with TBST (5 min each), blocking with 5% (w/v) skim milk for 1 hr, and incubation with primary antibody against GAPDH overnight at 4° C. Subsequent washes, incubation with secondary antibody and signal acquisition were performed as described above.

IKZF3 (Aiolos) = IKZF3 (Aiolos) (Homo sapiens (Human), UniProt Q9UKT9); assay: selectivity by Western blot in MM1S cells, IKZF3; assay type: cell-based; parameters: key to IKZF3 degradation: A represents a no degradation observed at 30 μM; B represents trace degradation at 30 μM (below 20%); C represents weak degradation at 30 μM (below 50%); D represents degradation at 30 μM (>90%); E represents degradation at 3 μM (>90%); F represents degradation at 0.3 μM (>90%); conditions: for IKZF3 degradation: MM1S cells, 6 hours, 0.3, 3 and 30 μM
Sequence of IKZF3 (Aiolos) (Q9UKT9 whole entry, looked up): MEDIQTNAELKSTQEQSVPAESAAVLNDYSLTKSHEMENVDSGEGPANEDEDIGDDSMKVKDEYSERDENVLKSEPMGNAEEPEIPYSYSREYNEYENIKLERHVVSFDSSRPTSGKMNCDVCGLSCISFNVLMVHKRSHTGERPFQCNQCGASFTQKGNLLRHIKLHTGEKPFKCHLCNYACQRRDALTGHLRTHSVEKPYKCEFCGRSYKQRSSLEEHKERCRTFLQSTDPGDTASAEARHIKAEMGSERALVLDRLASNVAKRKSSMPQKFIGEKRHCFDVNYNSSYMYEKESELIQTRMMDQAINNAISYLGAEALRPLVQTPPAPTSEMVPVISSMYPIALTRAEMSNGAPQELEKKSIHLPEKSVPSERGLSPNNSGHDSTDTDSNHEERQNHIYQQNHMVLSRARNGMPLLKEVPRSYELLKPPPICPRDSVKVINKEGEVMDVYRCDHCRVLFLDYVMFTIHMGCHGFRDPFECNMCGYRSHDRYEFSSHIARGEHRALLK
Procedure: as §1

GSPT1 = GSPT1 (Homo sapiens (Human), UniProt P15170+Q96SW2); assay: selectivity by Western blot in MM1S cells, GSPT1; assay type: cell-based; conditions: for GSPT1 degradation: MM1S cells, 6 hours, 0.3, 3 and 30 μM
Sequence of GSPT1 (P15170 whole entry, looked up): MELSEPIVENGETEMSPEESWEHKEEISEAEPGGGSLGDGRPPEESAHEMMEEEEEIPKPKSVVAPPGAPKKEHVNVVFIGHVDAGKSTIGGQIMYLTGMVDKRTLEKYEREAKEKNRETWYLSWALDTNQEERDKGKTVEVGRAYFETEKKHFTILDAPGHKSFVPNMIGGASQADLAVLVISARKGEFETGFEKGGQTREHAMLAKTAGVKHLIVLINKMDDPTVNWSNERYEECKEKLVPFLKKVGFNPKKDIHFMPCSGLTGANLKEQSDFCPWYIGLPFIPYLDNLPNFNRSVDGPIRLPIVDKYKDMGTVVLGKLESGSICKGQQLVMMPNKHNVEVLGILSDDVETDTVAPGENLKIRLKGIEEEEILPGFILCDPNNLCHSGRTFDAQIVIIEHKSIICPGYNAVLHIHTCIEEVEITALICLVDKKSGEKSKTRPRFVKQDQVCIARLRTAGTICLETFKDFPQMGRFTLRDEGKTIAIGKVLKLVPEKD
Sequence of GSPT1 (Q96SW2 whole entry, looked up): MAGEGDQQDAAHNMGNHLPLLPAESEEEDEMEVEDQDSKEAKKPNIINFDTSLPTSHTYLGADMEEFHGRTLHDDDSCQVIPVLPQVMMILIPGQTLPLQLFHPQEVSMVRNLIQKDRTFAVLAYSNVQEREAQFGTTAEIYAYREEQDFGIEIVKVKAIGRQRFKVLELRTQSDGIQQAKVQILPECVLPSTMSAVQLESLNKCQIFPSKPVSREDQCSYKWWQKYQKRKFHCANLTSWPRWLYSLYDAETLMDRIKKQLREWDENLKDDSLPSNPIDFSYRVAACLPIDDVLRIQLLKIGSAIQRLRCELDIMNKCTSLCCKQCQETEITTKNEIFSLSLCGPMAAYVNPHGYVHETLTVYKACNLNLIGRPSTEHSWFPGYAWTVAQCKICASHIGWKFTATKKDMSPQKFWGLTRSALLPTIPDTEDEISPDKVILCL
Sequence of GSPT1 (Q16531 whole entry partner, looked up): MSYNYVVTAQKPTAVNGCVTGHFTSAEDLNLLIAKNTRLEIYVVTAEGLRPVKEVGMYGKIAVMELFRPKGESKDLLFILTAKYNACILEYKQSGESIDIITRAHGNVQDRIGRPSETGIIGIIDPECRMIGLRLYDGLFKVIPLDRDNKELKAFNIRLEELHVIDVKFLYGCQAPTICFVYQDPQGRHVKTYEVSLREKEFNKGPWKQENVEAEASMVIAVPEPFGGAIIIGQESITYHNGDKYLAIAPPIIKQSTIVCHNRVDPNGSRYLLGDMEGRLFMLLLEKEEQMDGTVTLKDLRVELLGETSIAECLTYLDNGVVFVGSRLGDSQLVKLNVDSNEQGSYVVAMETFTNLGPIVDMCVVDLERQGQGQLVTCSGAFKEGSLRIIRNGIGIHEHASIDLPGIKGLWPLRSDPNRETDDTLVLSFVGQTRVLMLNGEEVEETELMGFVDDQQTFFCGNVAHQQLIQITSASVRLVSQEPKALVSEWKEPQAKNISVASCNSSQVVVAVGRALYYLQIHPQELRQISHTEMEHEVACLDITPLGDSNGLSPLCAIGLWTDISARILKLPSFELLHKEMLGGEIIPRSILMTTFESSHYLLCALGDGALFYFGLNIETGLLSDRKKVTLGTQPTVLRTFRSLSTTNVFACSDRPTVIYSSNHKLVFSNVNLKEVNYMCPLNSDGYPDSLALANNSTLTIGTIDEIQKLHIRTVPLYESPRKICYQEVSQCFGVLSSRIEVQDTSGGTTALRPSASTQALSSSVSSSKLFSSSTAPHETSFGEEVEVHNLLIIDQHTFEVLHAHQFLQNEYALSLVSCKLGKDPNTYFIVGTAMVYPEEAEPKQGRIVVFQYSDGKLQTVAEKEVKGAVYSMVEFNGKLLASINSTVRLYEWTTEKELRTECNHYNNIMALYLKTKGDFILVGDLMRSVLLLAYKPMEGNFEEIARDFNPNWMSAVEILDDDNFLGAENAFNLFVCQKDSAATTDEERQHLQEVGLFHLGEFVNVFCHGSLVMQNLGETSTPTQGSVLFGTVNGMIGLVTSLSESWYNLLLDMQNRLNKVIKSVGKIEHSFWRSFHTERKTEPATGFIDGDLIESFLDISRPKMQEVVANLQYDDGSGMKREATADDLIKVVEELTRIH
Procedure: as §1

SALL4 = SALL4 (Homo sapiens (Human), UniProt Q9UJQ4); assay: substrate degradation in cells (FIG. 1A), SALL4; assay type: cell-based; conditions: highest concentration tested of 30 μM
Sequence of SALL4 (Q9UJQ4 whole entry, looked up): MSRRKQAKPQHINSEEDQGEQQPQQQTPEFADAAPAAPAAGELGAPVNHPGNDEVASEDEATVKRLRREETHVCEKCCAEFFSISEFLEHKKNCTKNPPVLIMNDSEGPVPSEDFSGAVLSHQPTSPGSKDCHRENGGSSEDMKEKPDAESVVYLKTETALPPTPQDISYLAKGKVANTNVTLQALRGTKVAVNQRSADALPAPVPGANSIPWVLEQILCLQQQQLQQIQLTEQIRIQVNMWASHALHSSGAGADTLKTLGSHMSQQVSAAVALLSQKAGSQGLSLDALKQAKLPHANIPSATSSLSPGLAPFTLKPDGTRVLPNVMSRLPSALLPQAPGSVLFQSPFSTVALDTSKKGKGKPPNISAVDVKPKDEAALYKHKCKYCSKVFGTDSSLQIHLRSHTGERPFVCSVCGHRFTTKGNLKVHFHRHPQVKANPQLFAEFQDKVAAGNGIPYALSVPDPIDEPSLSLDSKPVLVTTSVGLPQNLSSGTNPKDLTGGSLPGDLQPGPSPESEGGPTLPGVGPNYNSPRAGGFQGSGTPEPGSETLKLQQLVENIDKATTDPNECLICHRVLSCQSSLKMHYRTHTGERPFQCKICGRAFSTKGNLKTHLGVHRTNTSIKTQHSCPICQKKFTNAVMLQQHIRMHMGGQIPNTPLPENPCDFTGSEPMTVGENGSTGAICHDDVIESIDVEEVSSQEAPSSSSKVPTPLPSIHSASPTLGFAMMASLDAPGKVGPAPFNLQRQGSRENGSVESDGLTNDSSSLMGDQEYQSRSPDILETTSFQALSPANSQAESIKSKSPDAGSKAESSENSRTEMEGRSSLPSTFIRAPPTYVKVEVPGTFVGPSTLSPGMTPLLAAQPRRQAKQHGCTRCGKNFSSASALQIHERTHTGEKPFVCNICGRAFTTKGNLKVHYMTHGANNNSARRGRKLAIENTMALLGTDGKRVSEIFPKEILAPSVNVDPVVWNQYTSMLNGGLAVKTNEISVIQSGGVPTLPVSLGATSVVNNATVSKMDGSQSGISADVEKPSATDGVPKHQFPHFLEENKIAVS

[2] = highest concentration tested of 30 μM

Sequence of Full length wild-type cereblon CRBN (Q96SW2 whole entry): as the sequence (Q96SW2 whole entry, looked up) above

IC50 ([1]; read-out: IC50 value) | IKZF1 degradation (IKZF1 (Ikaros)) | GSPT1 degradation (FIG. 1A) (GSPT1; cells treated at 0.3 μM) | IC50 ([1]; read-out: rFP IC50) | SMILES | IKZF3 degradation (IKZF3 (Aiolos)) | GSPT1 degradation (GSPT1) | IKZF1 degradation (FIG. 1A) (IKZF1 (Ikaros); [2]) | IKZF3 degradation (FIG. 1A) (IKZF3 (Aiolos); [2]) | SALL4 degradation (FIG. 1A) (SALL4)
 | A |  | > 1700 nM | O=C1CCC(N2Cc3ccc(COC(=O)Nc4ccc(-c5ccccc5)nc4)cc3C2=O)C(=O)N1 (centres unmarked) [Compound 42] | A | F (F represents degradation at 0.3 μM (>90%)) |  |  | 
 | A |  | > 1700 nM | CC(C)(C)c1ccc(NC(=O)OCc2ccc3c(c2)C(=O)N(C2CCC(=O)NC2=O)C3)cn1 (centres unmarked) [Compound 43] | B (B represents trace degradation at 30 μM (below 20%)) | F (F represents degradation at 0.3 μM (>90%)) |  |  | 

More lines, now with the values behind:

SMILES | IC50 ([1]; read-out: IC50 value) | IKZF1 degradation (IKZF1 (Ikaros)) | GSPT1 degradation (FIG. 1A) (GSPT1; cells treated at 0.3 μM) | IC50 ([1]; read-out: rFP IC50) | IKZF3 degradation (IKZF3 (Aiolos)) | GSPT1 degradation (GSPT1) | IKZF1 degradation (FIG. 1A) (IKZF1 (Ikaros); [2]) | IKZF3 degradation (FIG. 1A) (IKZF3 (Aiolos); [2]) | SALL4 degradation (FIG. 1A) (SALL4)
Cc1ncc(NC(=O)OCc2ccc3c(c2)C(=O)N(C2CCC(=O)NC2=O)C3)cc1Cl (centres unmarked) [Compound 6] | < 1100 nM | A |  |  | B (B represents trace degradation at 30 μM (below 20%)) | F (F represents degradation at 0.3 μM (>90%)) |  |  | 
Cc1ccc(NC(=O)OCc2ccc3c(c2)C(=O)N(C2CCC(=O)NC2=O)C3)cc1Cl (centres unmarked) [Compound 10] |  | A | complete GSPT1 degradation |  | B (B represents trace degradation at 30 μM (below 20%)) | D (D represents degradation at 30 μM (>90%)) | none of the known the substrates IKZF1, IKZF3, SALL4, CK1alpha was degraded | none of the known the substrates IKZF1, IKZF3, SALL4, CK1alpha was degraded | none of the known the substrates IKZF1, IKZF3, SALL4, CK1alpha was degraded
O=C1CCC(N2Cc3ccc(COC(=O)Nc4ccc(N5CCCCC5)nc4)cc3C2=O)C(=O)N1 (centres unmarked) [Compound 15] | < 1100 nM | A |  |  | B (B represents trace degradation at 30 μM (below 20%)) | F (F represents degradation at 0.3 μM (>90%)) |  |  | 
